Source: article doi:10.1101/2022.07.07.499167v1, “The thermodynamic state of aerobic glycolytic flux plays a critical role in stabilizing aerobic glycolytic flux of cancer cells” (biorxiv, 2022)

biological target: T1, pure recombinant PKM2 (Homo sapiens, UniProt P14618); assay: LDH-coupled pyruvate kinase assay, NADH absorbance […] nm; type: biochemical; details: 0.2 mM PEP, 2 mM ADP, 5 mM MgCl2, 100 mM KCl, pH 7.4, 37 °C; no inhibitor mixture; allosteric activator
T1 construct: gene PKM; PKM2 cDNA in pQE-30, 6xHis tag (removal not mentioned), expressed in E. coli M15 (pREP4), Ni-NTA purified
T1 sequence (P14618 2-531): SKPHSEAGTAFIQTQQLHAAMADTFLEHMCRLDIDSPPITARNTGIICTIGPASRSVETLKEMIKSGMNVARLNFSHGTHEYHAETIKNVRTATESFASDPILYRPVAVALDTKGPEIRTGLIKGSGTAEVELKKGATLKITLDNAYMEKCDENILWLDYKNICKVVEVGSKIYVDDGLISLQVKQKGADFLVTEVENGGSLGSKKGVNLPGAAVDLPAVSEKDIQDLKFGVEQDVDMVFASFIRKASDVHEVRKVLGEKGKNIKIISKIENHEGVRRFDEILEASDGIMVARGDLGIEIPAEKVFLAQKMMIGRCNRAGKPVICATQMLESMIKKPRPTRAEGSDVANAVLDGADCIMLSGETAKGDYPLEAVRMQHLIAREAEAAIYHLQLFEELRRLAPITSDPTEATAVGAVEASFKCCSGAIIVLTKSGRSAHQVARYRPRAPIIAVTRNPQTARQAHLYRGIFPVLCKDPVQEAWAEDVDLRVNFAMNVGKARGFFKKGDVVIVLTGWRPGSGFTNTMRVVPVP

AC50 | SMILES
0.0434 ± 0.0217 µM | O=P(O)(O)OC[C@H]1OC(O)(COP(=O)(O)O)[C@@H](O)[C@@H]1O (stereo partly drawn) [FBP]
339 ± 123 µM | N[C@@H](CO)C(=O)O [Serine]

biological target: T1, pure recombinant PKM2; assay: as above; type: biochemical; details: 0.2 mM PEP, 2 mM ADP, 5 mM MgCl2, 100 mM KCl, pH 7.4, 37 °C; no FBP; allosteric inhibitor

SMILES | IC50
C[C@H](N)C(=O)O [Alanine] | 227 ± 174 µM
N[C@@H](Cc1ccccc1)C(=O)O [Phenylalanine] | 40.9 ± 13.4 µM

Further lines, results first:

IC50 | SMILES
373 ± 175 µM | CC(C)[C@H](N)C(=O)O [Valine]
254 ± 104 µM | N[C@@H](Cc1c[nH]c2ccccc12)C(=O)O [Tryptophan]
